Experimental findings from US20120128580A1, “PRESELECTION OF SUBJECTS FOR THERAPEUTIC TREATMENT WITH ELESCLOMOL BASED ON HYPOXIC STATUS” (SYNTA PHARMACEUTICALS CORP., priority 2010, published 2012) are described below.

Data set [1] in a line: Half-life of elesclomol in humans. It counts as in vivo. To be noted: administered alone or with other chemotherapeutic agents. The source says: Elesclomol has been tested or has been approved for testing in clinical trials for treatment of metastatic melanoma, prostate cancer, solid tumors, recurrent or persistent ovarian epithelial cancer, fallopian tube cancer, and primary peritoneal cancer. The half-life of elesclomol in humans has been determined to be about an hour when administered alone or with other chemotherapeutic agents (e.g., with paxitaxel or carboplatinin).

The test system of data set [2] is cancer. The data set is described as follows: Chart review of treatment outcomes by level of hypoxia. It counts as in vivo, human. The protocol:
A chart review analysis is performed to determine the efficacy of elesclomol for the treatment of cancer based on the level of hypoxia of the tumor based on markers assessed during the treatment of the subjects. […] Subjects who were treated with elesclomol for whom no levels of hypoxic markers were determined can be used as an unstratified control group to understand the efficacy of elesclomol on a treatment population not selected based on the level of hypoxia in the subject/tumor. Alternatively, the population analyzed in the study for which hypoxia levels (e.g., LDH marker levels) can be compared to historical control samples in which an unstratified population was analyzed for response to elesclomol. […] Preferably, the same marker(s) of hypoxia is measured in each of the subjects, e.g., at least one isoform or subunit of lactate dehydrogenase (LDH) or hypoxia inducible factor (HIF); at least one pro-angiogenic form of vascular endothelial growth factor (VEGF), phosphorylated VEGF receptor (pKDR) 1, 2, or 3; neurolipin 1 (NRP-1), pyruvate dehydrokinase (PDH-K), and ornithine decarboxylase (ODC). […]

Data set [3] has as its system cancer. Description: Treatment outcomes by level of hypoxia in historical samples. It counts as in vivo, human. The method, then: An analysis using samples collected from subjects during treatment is performed to determine the efficacy of elesclomol for the treatment of cancer based on the level of hypoxia of the tumor based on markers assessed prior to and/or during the treatment of the subjects. […] The samples are analyzed for the level of hypoxia based on the amount or activity of a marker present. […] Various portions of the tumor tissue can also be analyzed when sufficient material is available, e.g., adjacent to the necrotic core, in the center of the tumor, adjacent to or including tumor vasculature, adjacent to normal tissue, etc. One or more markers of hypoxia are measured in each of the subjects, e.g., at least one isoform or subunit of lactate dehydrogenase (LDH) or hypoxia inducible factor (HIF); at least one pro-angiogenic form of vascular endothelial growth factor (VEGF), phosphorylated VEGF receptor (pKDR) 1, 2, or 3, neurolipin 1 (NRP-1), pyruvate dehydrokinase (PDH-K), and ornithine decarboxylase (ODC). […]

As to `CN(NC(=O)CC(=O)NN(C)C(=S)c1ccccc1)C(=S)c1ccccc1` [Elesclomol, N-malonyl-bis(N′-methyl-N′-thiobenzoylhydrazide)], in data set [1], the half-life result is given as “about an hour”. Besides, the “response of subjects with a low level of hypoxia compared to a high level of hypoxia” value in the data set with cancer [2] and in the data set with cancer [3] was “better response” throughout.
